Results published in patent US12440487B2, “Method of normalizing the neutrophil to lymphocyte ratio in cancer patients with a selective glucocorticoid receptor antagonist” (Corcept Therapeutics Incorporated, priority 2019, dated 2025).
Where “and” joins values, the source holds several entries; their conditions need not be identical. Equal entries are not always repeated. Entries after “also recorded” stand apart in the source; their conditions may differ.

Tests used:
[1] = molecular target: glucocorticoid receptor (GR) (Homo sapiens, UniProt P04150); conditions: binds to GR, PR and AR; cited from earlier work
Sequence of glucocorticoid receptor (GR) (P04150 whole entry, species assumed): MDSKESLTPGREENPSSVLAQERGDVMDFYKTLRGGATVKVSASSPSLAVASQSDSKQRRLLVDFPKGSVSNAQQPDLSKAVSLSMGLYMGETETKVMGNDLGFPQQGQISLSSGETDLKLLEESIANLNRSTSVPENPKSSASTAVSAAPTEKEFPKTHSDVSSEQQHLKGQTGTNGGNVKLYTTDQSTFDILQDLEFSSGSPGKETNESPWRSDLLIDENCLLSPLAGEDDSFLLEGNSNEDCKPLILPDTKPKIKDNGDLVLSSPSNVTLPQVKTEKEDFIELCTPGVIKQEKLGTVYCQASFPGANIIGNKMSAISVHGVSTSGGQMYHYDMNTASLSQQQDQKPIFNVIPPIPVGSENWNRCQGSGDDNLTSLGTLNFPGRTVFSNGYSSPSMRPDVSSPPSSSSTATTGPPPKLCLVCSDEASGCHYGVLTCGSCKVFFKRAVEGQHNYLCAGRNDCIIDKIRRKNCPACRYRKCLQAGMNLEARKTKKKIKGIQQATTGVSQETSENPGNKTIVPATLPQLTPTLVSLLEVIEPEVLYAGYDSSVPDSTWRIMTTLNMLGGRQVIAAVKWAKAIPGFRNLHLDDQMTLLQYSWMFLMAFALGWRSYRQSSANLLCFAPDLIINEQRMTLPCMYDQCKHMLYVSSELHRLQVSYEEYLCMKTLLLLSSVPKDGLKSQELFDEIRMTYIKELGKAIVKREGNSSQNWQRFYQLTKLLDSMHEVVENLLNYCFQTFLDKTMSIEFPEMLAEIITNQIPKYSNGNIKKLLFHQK

[2] = system: neutrophil or lymphocyte abundance in the blood; conditions: healthy men / healthy subjects; cited from earlier work
[3] = system: neutrophil-to-lymphocyte ratio (NLR); test: Prednisone-challenge NLR study in healthy subjects (NCT03508635, SAD and MAD cohorts); type: in vivo, human
Experimental: Methods: Lymphocyte and neutrophil abundance were determined using standard differential complete blood count tests.
(§1) Healthy subjects were enrolled in the NCT03508635 study of relacorilant. […] (C) is the Figure legend.
(§2) The intensive NLR sampling was conducted at time 0 (morning, pre-dose) and then 2, 4, 8, 12, and 24 hours thereafter. The single NLR samples were collected in the in the morning, pre-dose. The SAD portion of this experiment used a 500 mg dose while the MAD used a once daily 250 mg dose.
(§3) Blood was also drawn in the morning, pre-dose.

[4] = molecular target: T1, progesterone receptor (Homo sapiens, UniProt P06401); conditions: cited from earlier work
T1 sequence (P06401 1-933): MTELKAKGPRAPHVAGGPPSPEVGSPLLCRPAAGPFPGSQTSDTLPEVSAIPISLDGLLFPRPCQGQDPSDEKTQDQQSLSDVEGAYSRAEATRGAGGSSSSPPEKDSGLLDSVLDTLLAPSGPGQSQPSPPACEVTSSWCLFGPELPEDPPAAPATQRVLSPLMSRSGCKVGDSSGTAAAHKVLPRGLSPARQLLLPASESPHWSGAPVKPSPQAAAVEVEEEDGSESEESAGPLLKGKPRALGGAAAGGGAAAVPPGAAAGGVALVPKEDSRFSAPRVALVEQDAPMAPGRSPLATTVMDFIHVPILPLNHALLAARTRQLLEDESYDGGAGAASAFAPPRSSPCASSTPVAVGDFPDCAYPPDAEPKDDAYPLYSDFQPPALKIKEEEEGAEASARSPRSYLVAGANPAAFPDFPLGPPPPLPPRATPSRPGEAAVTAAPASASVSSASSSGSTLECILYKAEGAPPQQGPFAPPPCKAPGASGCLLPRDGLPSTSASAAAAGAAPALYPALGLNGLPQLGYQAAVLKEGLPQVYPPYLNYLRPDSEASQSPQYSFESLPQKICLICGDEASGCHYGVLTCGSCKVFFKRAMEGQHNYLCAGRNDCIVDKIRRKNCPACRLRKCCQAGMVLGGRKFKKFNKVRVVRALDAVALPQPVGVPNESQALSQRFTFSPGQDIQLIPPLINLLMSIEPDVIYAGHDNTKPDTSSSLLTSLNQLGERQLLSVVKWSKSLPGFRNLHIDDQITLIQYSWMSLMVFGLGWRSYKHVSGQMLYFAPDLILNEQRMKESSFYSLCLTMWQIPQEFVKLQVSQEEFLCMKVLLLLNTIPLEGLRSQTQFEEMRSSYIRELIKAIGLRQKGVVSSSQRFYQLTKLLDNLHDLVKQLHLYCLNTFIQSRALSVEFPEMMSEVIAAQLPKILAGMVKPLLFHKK

[5] = system: neutrophil-to-lymphocyte ratio (NLR); test: Relacorilant alone, NLR in healthy subjects (NCT03508635); type: in vivo, human; conditions: 250 mg for 14 continuous days, cohort of 7 healthy subjects, none with baseline NLR greater than 3
Experimental: as §1, §2, §3
The normalization of the NLR by relacorilant is thought to occur through antagonism of endogenous cortisol. If patients have elevated cortisol activity, relacorilant would be expected to normalize this activity. Alternatively, relacorilant alone could cause neutropenia (reduction in neutrophils) or lymphocytosis (increase in lymphocytes) via antagonism of normal endogenous cortisol. To distinguish these two possibilities, we assessed the effects of relacorilant alone in healthy subject with normal endogenous cortisol. After 14 administering 250 mg of relacorilant for 14 continuous days, no change in the NLR was observed across a cohort of 7 healthy subjects (FIG. 7).

[6] = system: neutrophil-to-lymphocyte ratio (NLR); test: 7-day single-agent relacorilant lead-in, NLR in patients with advanced solid tumors (NCT02762981); type: in vivo, human; conditions: for patients who experienced a decrease in NLR / average change in NLR: 7-day relacorilant lead-in
Experimental: The relacorilant lead-in included daily dosing of relacorilant alone (without nab-paclitaxel) for 7 days.
Drug concentrations were determined in study NCT02762981. Blood was collected at multiple timepoints on day 7 of relacorilant dosing. Upon collection, blood was chelated with EDTA, centrifuged, and plasma was aliquoted. Bioanalytical analyses were conducted by MicroConstants (San Diego, CA, USA). In brief, human plasma samples containing relacorilant and its stable-labeled analog as an internal standard and K3EDTA as the anticoagulant were buffered with an ammonium citrate solution and extracted with 2-butanol:hexane (2.5:97.5, v/v). The samples were vortex mixed, centrifuged and the lower portion was frozen in an ultra-cold freezer. The organic portion was transferred to a clean tube and evaporated under nitrogen. The extracts were dried, reconstituted and analyzed by reversed-phase HPLC using an ACE UltraCore SuperPhenylHexyl column. The mobile phase was nebulized using heated nitrogen in a Z-spray source/interface set to electrospray positive ionization mode. The ionized compounds were detected using MS/MS.
as §3

Compound: CC#C[C@]1(O)CC[C@H]2[C@@H]3CCC4=CC(=O)CCC4=C3[C@@H](c3ccc(N(C)C)cc3)C[C@@]21C [mifepristone, 11β-(4-dimethylaminophenyl)-17β-hydroxy-17α-(1-propynyl)-estra-4,9-dien-3-one]
- selectivity for GR [1]: not selective
- effect on neutrophil or lymphocyte abundance in the blood [2]: does not alter

Compound: C[C@]12C=CC(=O)C=C1CC[C@@H]1[C@@H]2C(=O)C[C@@]2(C)[C@H]1CC[C@]2(O)C(=O)CO [prednisone, 17α,21-dihydroxypregna-1,4-diene-3,11,20-trione, reference compound]
- NLR area under the curve ([3]; 25 mg prednisone after 14 consecutive days of placebo, different subjects): 72 NLR*hr
- NLR at 8 hours post prednisone ([3]; 9 healthy subjects, single dose 25 mg prednisone, baseline less than 2, returned to baseline after 24 hours): greater than 6
- NLR area under the curve ([3]; MAD cohort, 25 mg prednisone alone, same subjects on Day −5): 61.7 NLR*hr
- NLR area under the curve ([3]; SAD cohort, 25 mg prednisone alone): 54.6 NLR*hr
- acute increase of the neutrophil-to-lymphocyte ratio (NLR) ([3]; healthy subjects (n=9), 25 mg prednisone): 4.7 fold

Compound: Cn1cc(S(=O)(=O)N2CCC3=Cc4c(cnn4-c4ccc(F)cc4)C[C@]3(C(=O)c3cc(C(F)(F)F)ccn3)C2)cn1 [relacorilant, (R)-(1-(4-fluorophenyl)-6-((1-methyl-1H-pyrazol-4-yl)sulfonyl)-4,4a,5,6,7,8-hexahydro-1H-pyrazolo[3,4-g]isoquinolin-4a-yl)(4-(trifluoromethyl)pyridin-2-yl)methanone]
- antagonism of the progesterone receptor [4]: does not antagonize
- change in the NLR with relacorilant alone [5]: no change; also recorded: does not change
- effect on prednisone-induced NLR increase ([3]; 14 consecutive days of 250 mg/day relacorilant, then 25 mg prednisone, healthy subjects): significantly blunted; also recorded: reversed the effects
- NLR area under the curve ([3]; MAD cohort, 25 mg prednisone after 14 consecutive days of 250 mg/day relacorilant): 9.6 NLR*hr
- NLR area under the curve ([3]; SAD cohort, single 500 mg dose relacorilant administered with 25 mg prednisone): 12.5 NLR*hr
- effect on prednisone-induced NLR increase ([3]; relacorilant co-administration with 25 mg prednisone, healthy subjects (n=9)): reversed this effect
- effect on prednisone-induced NLR increase ([3]; single 500 mg dose relacorilant with 25 mg prednisone, healthy subjects): significantly blunted; also recorded: reversed the effects
- patients who experienced a decrease in NLR ([6]; patients with AUC between 2011-8000 ng*hr/ml (6/13)): 46%
- average change in NLR ([6]; patients with AUC between 3740-8000 ng*hr/ml): −6.1%
- patients who experienced a decrease in NLR ([6]; patients with AUC<2011 ng*hr/ml or Cmax<442 ng/ml): None
- patients who experienced a decrease in NLR ([6]; patients with Cmax between 442-1000 ng/ml (6/9)): 67%
- average change in NLR ([6]; patients with Cmax between 595-836 ng/ml): −4.4%
- NLR change from baseline (CfB) ([6]; ovarian cancer patient 038-4004, 7-day relacorilant lead-in): −46% and −55%
- NLR after relacorilant lead-in ([6]; ovarian cancer patient 038-4004, 7-day relacorilant lead-in, NLR before 5.5): 2.5
